PMC4620497 (Scientific Reports, 2015)

Assays:
PIK3C2B = target: T1, PIK3C2B (Homo sapiens, UniProt O00750); test: KINOMEscan panel screen; assay type: binding; settings: read-out: Percent Control(%)
T1 construct: purchased DiscoveRx KINOMEscan (Ambit Biosciences)

MKNK1 = target: T2, MKNK1 (Homo sapiens, UniProt Q9BUB5); test: KINOMEscan panel screen; assay type: binding; settings: read-out: Percent Control(%)
T2 construct: purchased DiscoveRx KINOMEscan (Ambit Biosciences)

DCAMKL2 = target: T3, DCAMKL2 (Homo sapiens, UniProt Q8N568); test: KINOMEscan panel screen; assay type: binding; settings: read-out: Percent Control(%)
T3 construct: purchased DiscoveRx KINOMEscan (Ambit Biosciences)

KIT(V559D,T670I) = target: T4, KIT(V559D,T670I) (Homo sapiens, UniProt P10721, T670I/V559D); test: KINOMEscan panel screen; assay type: binding; settings: read-out: Percent Control(%)
T4 construct: purchased DiscoveRx KINOMEscan (Ambit Biosciences)

[1] = target: T5, RSK4(Kin.Dom.2-C-terminal) (Homo sapiens, UniProt Q9UK32); test: KINOMEscan panel screen; assay type: binding; settings: read-out: Percent Control(%)
T5 construct: RSK4(Kin.Dom.2-C-terminal); purchased DiscoveRx KINOMEscan (Ambit Biosciences)

ULK2 = target: T6, ULK2 (Homo sapiens, UniProt Q8IYT8); test: KINOMEscan panel screen; assay type: binding; settings: read-out: Percent Control(%)
T6 construct: purchased DiscoveRx KINOMEscan (Ambit Biosciences)

IKK-alpha = target: T7, IKK-alpha (Homo sapiens, UniProt O15111); test: KINOMEscan panel screen; assay type: binding; settings: read-out: Percent Control(%)
T7 construct: purchased DiscoveRx KINOMEscan (Ambit Biosciences)
T7 sequence (O15111 whole entry): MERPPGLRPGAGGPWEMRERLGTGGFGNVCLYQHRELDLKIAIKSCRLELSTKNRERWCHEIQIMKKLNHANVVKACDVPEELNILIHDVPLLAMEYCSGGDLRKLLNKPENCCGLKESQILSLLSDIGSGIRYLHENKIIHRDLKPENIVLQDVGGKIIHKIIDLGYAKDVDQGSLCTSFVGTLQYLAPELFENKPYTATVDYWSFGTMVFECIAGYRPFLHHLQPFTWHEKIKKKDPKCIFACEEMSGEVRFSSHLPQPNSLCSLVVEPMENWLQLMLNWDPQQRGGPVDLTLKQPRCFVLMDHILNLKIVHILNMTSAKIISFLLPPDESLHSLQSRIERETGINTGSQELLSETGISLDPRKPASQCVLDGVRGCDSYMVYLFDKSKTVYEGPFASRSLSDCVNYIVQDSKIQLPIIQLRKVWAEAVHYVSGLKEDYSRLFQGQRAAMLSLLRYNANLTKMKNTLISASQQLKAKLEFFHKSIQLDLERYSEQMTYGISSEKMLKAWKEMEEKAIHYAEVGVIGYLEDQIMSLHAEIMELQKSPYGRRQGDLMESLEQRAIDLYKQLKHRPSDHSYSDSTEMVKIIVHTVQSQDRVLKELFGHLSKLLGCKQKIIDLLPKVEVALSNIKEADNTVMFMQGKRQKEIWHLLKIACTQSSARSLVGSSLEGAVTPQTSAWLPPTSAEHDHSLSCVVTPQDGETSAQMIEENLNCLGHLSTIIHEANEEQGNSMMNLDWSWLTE

ERK3 = target: T8, ERK3 (Homo sapiens, UniProt Q16659); test: KINOMEscan panel screen; assay type: binding; settings: read-out: Percent Control(%)
T8 construct: purchased DiscoveRx KINOMEscan (Ambit Biosciences)

PDGFRα = target: T9, PDGFRα (Homo sapiens, UniProt P16234); test: KINOMEscan kinase binding assay (Kd)
T9 construct: purchased Ambit Biosciences (KINOMEscan)
T9 sequence (P16234 24-1089): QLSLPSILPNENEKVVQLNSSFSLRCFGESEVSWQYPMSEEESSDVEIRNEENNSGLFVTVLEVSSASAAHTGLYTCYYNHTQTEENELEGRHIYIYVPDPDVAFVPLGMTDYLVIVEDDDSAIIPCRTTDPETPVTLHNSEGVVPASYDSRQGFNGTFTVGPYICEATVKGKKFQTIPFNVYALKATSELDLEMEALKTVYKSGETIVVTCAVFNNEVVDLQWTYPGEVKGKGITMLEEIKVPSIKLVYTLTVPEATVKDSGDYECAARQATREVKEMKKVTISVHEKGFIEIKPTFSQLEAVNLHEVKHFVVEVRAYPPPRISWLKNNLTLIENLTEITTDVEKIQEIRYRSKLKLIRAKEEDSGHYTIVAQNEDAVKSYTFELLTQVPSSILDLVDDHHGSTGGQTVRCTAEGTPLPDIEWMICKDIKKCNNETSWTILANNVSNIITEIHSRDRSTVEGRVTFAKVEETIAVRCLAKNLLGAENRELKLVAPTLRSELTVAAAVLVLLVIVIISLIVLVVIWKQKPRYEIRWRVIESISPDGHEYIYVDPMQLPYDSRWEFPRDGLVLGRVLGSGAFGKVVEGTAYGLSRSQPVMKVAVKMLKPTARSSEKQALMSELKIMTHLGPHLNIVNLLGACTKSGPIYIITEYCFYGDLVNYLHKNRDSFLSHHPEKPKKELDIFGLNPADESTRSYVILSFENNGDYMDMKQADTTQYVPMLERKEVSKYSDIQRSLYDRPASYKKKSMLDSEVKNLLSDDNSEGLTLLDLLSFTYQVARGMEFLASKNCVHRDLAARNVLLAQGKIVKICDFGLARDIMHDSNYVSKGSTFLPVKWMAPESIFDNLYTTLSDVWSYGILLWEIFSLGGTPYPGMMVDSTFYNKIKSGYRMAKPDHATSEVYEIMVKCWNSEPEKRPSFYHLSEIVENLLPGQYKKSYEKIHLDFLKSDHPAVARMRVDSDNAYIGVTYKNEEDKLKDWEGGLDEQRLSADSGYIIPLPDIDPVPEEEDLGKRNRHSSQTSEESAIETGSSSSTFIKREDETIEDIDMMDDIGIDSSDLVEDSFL

WNK3 = target: T10, WNK3 (Homo sapiens, UniProt Q9BYP7); test: KINOMEscan panel screen; assay type: binding; settings: read-out: Percent Control(%)
T10 construct: purchased DiscoveRx KINOMEscan (Ambit Biosciences)

TGFBR1 = target: T11, TGFBR1 (Homo sapiens, UniProt P36897); test: KINOMEscan panel screen; assay type: binding; settings: read-out: Percent Control(%)
T11 construct: DNA tag (qPCR read-out); purchased Ambit Biosciences (KINOMEscan service)

TNIK = target: T12, TNIK (Homo sapiens, UniProt Q9UKE5); test: KINOMEscan panel screen; assay type: binding; settings: read-out: Percent Control(%)
T12 construct: purchased DiscoveRx KINOMEscan (Ambit Biosciences)
T12 sequence (Q9UKE5 whole entry): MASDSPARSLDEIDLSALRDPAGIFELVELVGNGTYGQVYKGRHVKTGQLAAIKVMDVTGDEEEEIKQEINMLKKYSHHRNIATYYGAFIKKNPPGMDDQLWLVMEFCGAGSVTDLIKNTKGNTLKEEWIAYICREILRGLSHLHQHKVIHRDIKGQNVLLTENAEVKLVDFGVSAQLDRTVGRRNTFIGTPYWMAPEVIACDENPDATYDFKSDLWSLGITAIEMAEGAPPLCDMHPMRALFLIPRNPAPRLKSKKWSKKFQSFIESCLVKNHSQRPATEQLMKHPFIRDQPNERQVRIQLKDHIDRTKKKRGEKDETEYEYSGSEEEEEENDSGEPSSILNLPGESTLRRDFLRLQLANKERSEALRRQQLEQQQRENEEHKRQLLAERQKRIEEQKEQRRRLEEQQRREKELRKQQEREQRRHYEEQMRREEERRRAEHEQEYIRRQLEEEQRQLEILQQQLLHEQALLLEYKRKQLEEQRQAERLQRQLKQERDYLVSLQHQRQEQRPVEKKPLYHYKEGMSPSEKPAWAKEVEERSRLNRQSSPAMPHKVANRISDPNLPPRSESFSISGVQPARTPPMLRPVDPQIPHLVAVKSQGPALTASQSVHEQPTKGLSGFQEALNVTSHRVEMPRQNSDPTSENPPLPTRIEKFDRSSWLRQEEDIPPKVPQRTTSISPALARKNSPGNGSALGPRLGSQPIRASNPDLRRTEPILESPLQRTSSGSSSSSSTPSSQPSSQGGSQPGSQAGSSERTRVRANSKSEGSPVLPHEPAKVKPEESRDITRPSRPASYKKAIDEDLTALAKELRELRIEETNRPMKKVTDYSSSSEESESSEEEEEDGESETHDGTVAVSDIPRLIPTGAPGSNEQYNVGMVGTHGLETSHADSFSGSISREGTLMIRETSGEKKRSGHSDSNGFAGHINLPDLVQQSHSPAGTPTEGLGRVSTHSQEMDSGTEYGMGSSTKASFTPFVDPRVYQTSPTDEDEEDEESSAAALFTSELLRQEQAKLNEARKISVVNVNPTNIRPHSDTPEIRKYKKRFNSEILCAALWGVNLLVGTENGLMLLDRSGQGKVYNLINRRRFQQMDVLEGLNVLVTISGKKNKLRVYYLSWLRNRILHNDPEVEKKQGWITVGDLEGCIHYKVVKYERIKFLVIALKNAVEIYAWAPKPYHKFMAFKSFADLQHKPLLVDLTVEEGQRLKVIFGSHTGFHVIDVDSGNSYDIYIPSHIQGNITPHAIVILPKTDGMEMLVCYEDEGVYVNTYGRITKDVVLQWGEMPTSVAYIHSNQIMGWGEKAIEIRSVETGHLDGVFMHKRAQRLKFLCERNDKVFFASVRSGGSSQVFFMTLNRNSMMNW

HASPIN = target: T13, HASPIN (Homo sapiens, UniProt Q8TF76); test: KINOMEscan panel screen; assay type: binding; settings: read-out: Percent Control(%)
T13 construct: purchased DiscoveRx KINOMEscan (Ambit Biosciences)

NEK5 = target: T14, NEK5 (Homo sapiens, UniProt Q6P3R8); test: KINOMEscan panel screen; assay type: binding; settings: read-out: Percent Control(%)
T14 construct: purchased DiscoveRx KINOMEscan (Ambit Biosciences)
T14 sequence (Q6P3R8 whole entry): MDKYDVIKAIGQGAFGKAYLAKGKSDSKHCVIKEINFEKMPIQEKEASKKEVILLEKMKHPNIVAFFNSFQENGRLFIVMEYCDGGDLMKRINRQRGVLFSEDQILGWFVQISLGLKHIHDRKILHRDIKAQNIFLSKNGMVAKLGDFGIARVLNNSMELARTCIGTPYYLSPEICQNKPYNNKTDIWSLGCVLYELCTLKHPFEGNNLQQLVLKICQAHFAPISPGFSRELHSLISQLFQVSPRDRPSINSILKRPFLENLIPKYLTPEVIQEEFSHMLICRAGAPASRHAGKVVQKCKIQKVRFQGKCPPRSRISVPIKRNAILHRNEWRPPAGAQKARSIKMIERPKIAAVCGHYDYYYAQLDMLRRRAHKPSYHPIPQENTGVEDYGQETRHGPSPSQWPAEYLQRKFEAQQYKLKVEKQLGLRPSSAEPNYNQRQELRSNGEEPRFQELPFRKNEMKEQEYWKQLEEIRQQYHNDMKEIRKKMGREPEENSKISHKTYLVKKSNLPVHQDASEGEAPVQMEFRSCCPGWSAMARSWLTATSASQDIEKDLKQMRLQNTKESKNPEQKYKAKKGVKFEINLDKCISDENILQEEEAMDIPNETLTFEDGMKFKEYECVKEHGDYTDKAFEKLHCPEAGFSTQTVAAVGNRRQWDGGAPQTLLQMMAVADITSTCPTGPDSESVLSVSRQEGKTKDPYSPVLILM

[2] = test system: phosphorylation of FLT3 and STAT5 in MV4-11 tumors; test: FLT3 signaling in MV4-11 xenograft tumors (western blot); assay type: in vivo, NOD-SCID mice; settings: single oral dose 10 mg/kg
Method: To examine the effects of SKLB-677 on FLT3 and Wnt/β-catenin signaling in vivo, the same MV4-11 xenograft model was used and MV4-11 tumors were harvested at specific time points (0 h, 4 h, 6 h, 8 h, 12 h, and 24 h) after the treatment of 10 mg/kg SKLB-677 (3 mice for each time point). Western blot assays and real-time qPCR assays were conducted on the harvested tumors.
Western blot analysis was performed as previously described. Whole protein lysates of tumor samples were collected by the abrading of tumors in liquid nitrogen. […] Quantitative analysis of the protein level was performed with NIH image analysis software, ImageJ (normalized relative to the vehicle control).
Figure 5 In vivo effects of SKLB-677. […] The tumor volume and body weight were measured every 3 days during the treatment. […] Ki67 and TUNEL were detected with immunohistochemical. […] Tumors were harvested at the indicated time points, and the FLT3 signaling pathway was detected using western blot assays. […] (e) The same harvested tumors were detected using real-time qPCR assays to test the expression of AXIN2 and NKD1 (the target genes of Wnt/β-catenin pathway). […] The plasma concentrations were determined using liquid–liquid extraction followed by high-performance liquid chromatography (HPLC) with tandem mass spectrometric detection.

[3] = target: T15, RSK2(Kin.Dom.1-N-terminal) (Homo sapiens, UniProt P51812); test: KINOMEscan panel screen; assay type: binding; settings: read-out: Percent Control(%)
T15 construct: RSK2(Kin.Dom.1-N-terminal); purchased DiscoveRx KINOMEscan (Ambit Biosciences)
T15 sequence (P51812 68-327 limits assumed): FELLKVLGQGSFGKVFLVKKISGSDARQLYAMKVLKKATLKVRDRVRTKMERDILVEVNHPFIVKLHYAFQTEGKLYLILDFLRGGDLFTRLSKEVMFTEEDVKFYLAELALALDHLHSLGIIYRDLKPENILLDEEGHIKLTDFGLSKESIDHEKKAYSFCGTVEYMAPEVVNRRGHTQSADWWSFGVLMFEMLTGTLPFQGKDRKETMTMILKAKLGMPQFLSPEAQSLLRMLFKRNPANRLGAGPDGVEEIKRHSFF

ALK = target: T16, ALK (Homo sapiens, UniProt Q9UM73); test: KINOMEscan panel screen; assay type: binding; settings: read-out: Percent Control(%)
T16 construct: purchased DiscoveRx KINOMEscan (Ambit Biosciences)

TYRO3 = target: T17, TYRO3 (Homo sapiens, UniProt Q06418); test: KINOMEscan panel screen; assay type: binding; settings: read-out: Percent Control(%)
T17 construct: purchased DiscoveRx KINOMEscan (Ambit Biosciences)

MUSK = target: T18, MUSK (Homo sapiens, UniProt O15146); test: KINOMEscan panel screen; assay type: binding; settings: read-out: Percent Control(%)
T18 construct: purchased DiscoveRx KINOMEscan (Ambit Biosciences)
T18 sequence (O15146 24-869): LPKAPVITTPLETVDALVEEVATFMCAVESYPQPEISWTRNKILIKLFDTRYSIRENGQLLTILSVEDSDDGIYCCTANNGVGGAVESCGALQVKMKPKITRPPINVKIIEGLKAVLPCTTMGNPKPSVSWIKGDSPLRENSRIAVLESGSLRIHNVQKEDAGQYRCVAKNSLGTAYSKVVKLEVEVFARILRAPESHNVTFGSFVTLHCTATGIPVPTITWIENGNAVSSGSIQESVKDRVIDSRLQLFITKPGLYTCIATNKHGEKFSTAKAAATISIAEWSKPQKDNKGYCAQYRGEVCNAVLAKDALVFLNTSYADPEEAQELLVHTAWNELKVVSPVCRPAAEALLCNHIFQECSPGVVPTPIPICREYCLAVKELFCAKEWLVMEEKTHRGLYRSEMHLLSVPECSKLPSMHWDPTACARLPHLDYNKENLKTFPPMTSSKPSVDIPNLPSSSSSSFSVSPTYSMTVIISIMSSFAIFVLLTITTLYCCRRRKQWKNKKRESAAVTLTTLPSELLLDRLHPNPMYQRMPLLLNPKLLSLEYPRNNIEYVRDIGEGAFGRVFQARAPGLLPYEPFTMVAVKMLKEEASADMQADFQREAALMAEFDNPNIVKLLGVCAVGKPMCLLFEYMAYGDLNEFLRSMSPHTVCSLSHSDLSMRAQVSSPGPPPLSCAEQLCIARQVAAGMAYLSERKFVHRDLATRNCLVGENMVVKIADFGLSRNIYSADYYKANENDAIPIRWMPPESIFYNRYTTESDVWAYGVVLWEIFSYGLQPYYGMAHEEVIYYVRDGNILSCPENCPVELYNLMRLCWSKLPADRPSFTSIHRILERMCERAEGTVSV

`CC(C)(C)c1cc(NC(=O)Nc2ccc(Oc3ncnc4[nH]ncc34)c(F)c2)no1` [SKLB-677, 1-(4-(1H-pyrazolo[3,4-d]pyrimidin-4-yloxy)-3-fluorophenyl)-3-(5-tert-butylisoxazol-3-yl)urea] gave a remaining binding at 10 µM (PIK3C2B) of 100%, a remaining binding at 10 µM (MKNK1) of 0.1% and a remaining binding at 10 µM (DCAMKL2) of 100%. For the same compound, the remaining binding at 10 µM (KIT(V559D,T670I)) was 0.1%, the remaining binding at 10 µM [1] was 72% and the remaining binding at 10 µM (ULK2) was 97%. It also gave a remaining binding at 10 µM (IKK-alpha) of 75%, a remaining binding at 10 µM (ERK3) of 79% and a Kd (PDGFRα) of 12 nM. For the same compound, the remaining binding at 10 µM (WNK3) was 100%, the remaining binding at 10 µM (TGFBR1) was 100% and the remaining binding at 10 µM (TNIK) was 5.2%. The remaining binding at 10 µM (HASPIN) was 42%, the remaining binding at 10 µM (NEK5) was 9.8% and the “time for which the effects on p-FLT3 and p-STAT5 were maintained” value [2] was “up to 24 h”. For the same compound, the “phosphorylation of FLT3 and STAT5 in tumors” value ([2]; 4 h posttreatment) was “nearly abolished”, the remaining binding at 10 µM [3] was 35% and the remaining binding at 10 µM (ALK) was 4.8%. It also gave a remaining binding at 10 µM (TYRO3) of 0.35% and a remaining binding at 10 µM (MUSK) of 0%.
